The source of these data is patent US11135234B2, “Effective aminoglycoside antibiotic for multidrug-resistant bacteria” (MICROBIAL CHEMISTRY RESEARCH FOUNDATION, priority 2015, dated 2021).

Values after ≈ are worked out from the molar mass of the structure shown.

The subject of one assay is P. aeruginosa MSC01035. The experiment in a line: MIC, agar plate dilution method, P. aeruginosa MSC01035. The assay is classed as cell-based, Pseudomonas aeruginosa. The following applies: Pseudomonas aeruginosa, P. aeruginosa MSC01035, ABK-resistant, read-out: minimal inhibitory concentration (MIC). The essentials: (§1)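 Japan Society of Chemotherapy agar dilution protocol used. MIC reported in μg/mL.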

A further assay has as its system S. aureus MF490. As to the kind of experiment: MIC, agar plate dilution method, S. aureus MF490. The assay is classed as cell-based, Staphylococcus aureus. The following applies: Staphylococcus aureus, MRSA, read-out: minimal inhibitory concentration (MIC). The essentials:
as §1

The test system of assay [1] is A. baumannii ATCC BAA-1710. The experiment in a line: MIC, agar plate dilution method, A. baumannii ATCC BAA-1710. The assay is classed as cell-based, Acinetobacter baumannii. The following applies: Acinetobacter baumannii, ATCCBAA1710, A. baumannii ATCC BAA-1710, MDRA, read-out: minimal inhibitory concentration (MIC). The essentials: as §1
The subject of another assay is E. faecium ATCC19434. The experiment in a line: MIC, agar plate dilution method, E. faecium ATCC19434. The following applies: Enterococcus faecium, ATCC19434, E. faecium ATCC19434, read-out: minimal inhibitory concentration (MIC). The assay is classed as cell-based, Enterococcus faecium. The procedure, abridged: as §1
Assay [2] has as its system K. pneumoniae ATCC BAA-2146. The experiment in a line: MIC, agar plate dilution method, K. pneumoniae ATCC BAA-2146. Particulars: Klebsiella pneumoniae, ATCCBAA2146, K. pneumoniae ATCC BAA-2146, NDM-producing strain, read-out: minimal inhibitory concentration (MIC). The assay is classed as cell-based, Klebsiella pneumoniae. The essentials:
as §1

Another assay concerns S. aureus RN4220/pMS520. The experiment in a line: MIC, agar plate dilution method, S. aureus RN4220/pMS520. The assay is classed as cell-based, Staphylococcus aureus. The following applies: Staphylococcus aureus, MRSA, read-out: minimal inhibitory concentration (MIC), S. aureus RN4220/pMS520, MRSA. The essentials: as §1
In the next assay the test system is P. aeruginosa PAO1. The experiment in a line: MIC, agar plate dilution method, P. aeruginosa PAO1. The assay is classed as cell-based, Pseudomonas aeruginosa. Particulars: Pseudomonas aeruginosa, PAO1, P. aeruginosa PAO1, Sensitive bacterium, read-out: minimal inhibitory concentration (MIC). The procedure, abridged:
as §1

In another assay the test system is E. coli JM109/pMW218. The experiment in a line: MIC, agar plate dilution method, E. coli JM109/pMW218. The assay is classed as cell-based, Escherichia coli. Particulars: Escherichia coli, JM109/PMW218, E. coli JM109/pMW218, Sensitive bacterium, read-out: minimal inhibitory concentration (MIC). The procedure, abridged: as §1
The test system of a further assay is S. aureus RN4220. The experiment in a line: MIC, agar plate dilution method, S. aureus RN4220. The assay is classed as cell-based, Staphylococcus aureus. Particulars: Staphylococcus aureus, RN4220, S. aureus RN4220, Sensitive bacterium, read-out: minimal inhibitory concentration (MIC). The procedure, abridged:
as §1

For the next assay, the system named is S. marcescens GN6944. The experiment in a line: MIC, agar plate dilution method, S. marcescens GN6944. The assay is classed as cell-based, Serratia marcescens. Particulars: Serratia marcescens, S. marcescens GN6944, GM-resistant, read-out: minimal inhibitory concentration (MIC). The essentials:
as §1

For a further assay, the system named is P. aeruginosa PAO1/GN315. As to the kind of experiment: MIC, agar plate dilution method, P. aeruginosa PAO1/GN315. The assay is classed as cell-based, Pseudomonas aeruginosa. Particulars: Pseudomonas aeruginosa, read-out: minimal inhibitory concentration (MIC), P. aeruginosa PAO1/GN315, AMK-resistant. The essentials:
as §1

Another assay relates to S. marcescens TH-0447. As to the kind of experiment: MIC, agar plate dilution method, S. marcescens TH-0447. The assay is classed as cell-based, Serratia marcescens. Particulars: Serratia marcescens, TH0447, S. marcescens TH-0447, AMK-resistant, read-out: minimal inhibitory concentration (MIC). The procedure, abridged: as §1
The subject of another assay is P. aeruginosa MSC17707. The experiment in a line: MIC, agar plate dilution method, P. aeruginosa MSC17707. The assay is classed as cell-based, Pseudomonas aeruginosa. Particulars: Pseudomonas aeruginosa, MSC17707, P. aeruginosa MSC17707, AMK-resistant, read-out: minimal inhibitory concentration (MIC). The procedure, abridged:
as §1

For assay [3], the system named is K. pneumoniae ATCC BAA-1705. The experiment in a line: MIC, agar plate dilution method, K. pneumoniae ATCC BAA-1705. The assay is classed as cell-based, Klebsiella pneumoniae. Particulars: Klebsiella pneumoniae, ATCCBAA1705, K. pneumoniae ATCC BAA-1705, KPC-producing strain, read-out: minimal inhibitory concentration (MIC). The essentials:
as §1

As to `CNC1C(O[C@H]2OC(C)[C@@H](N)[C@H](O)C2O)O[C@H]2CC(N)[C@@H](O[C@H]3CC[C@H](N)CC3N)OC2C1O` (some centres unmarked) [Compound R6, 5,6,6″-trideoxyapramycin], the MIC in the assay with P. aeruginosa MSC01035 turned out to be 16 µg/mL (≈ 32.5 µM); in the assay with S. aureus MF490, 8 µg/mL (≈ 16.3 µM); in assay [1], 8 µg/mL (≈ 16.3 µM); in the assay on E. faecium ATCC19434, 16 µg/mL (≈ 32.5 µM); in assay [2], 1 µg/mL (≈ 2.03 µM); in the assay on S. aureus RN4220/pMS520, 2 µg/mL (≈ 4.07 µM). The MIC was found to be 8 µg/mL (≈ 16.3 µM) with P. aeruginosa PAO1; 1 µg/mL (≈ 2.03 µM) in the assay on E. coli JM109/pMW218; 2 µg/mL (≈ 4.07 µM) in the assay on S. aureus RN4220; 4 µg/mL (≈ 8.14 µM) with S. marcescens GN6944; 8 µg/mL (≈ 16.3 µM) in the assay on P. aeruginosa PAO1/GN315; 8 µg/mL (≈ 16.3 µM) in the assay on S. marcescens TH-0447. The MIC with P. aeruginosa MSC17707 stood at 16 µg/mL (≈ 32.5 µM); in [3], 2 µg/mL (≈ 4.07 µM).

On to `CNC1C(O[C@H]2OC(CO)[C@@H](NC)[C@H](O)C2O)O[C@H]2CC(N)[C@@H](O[C@H]3CC(O)[C@H](N)CC3N)OC2C1O` (some centres unmarked) [Compound S1-a, 5-deoxy-4″-N-methylapramycin], for which the MIC was 4 µg/mL (≈ 7.44 µM) with P. aeruginosa MSC01035; 8 µg/mL (≈ 14.9 µM) in the assay on S. aureus MF490; 8 µg/mL (≈ 14.9 µM) in [1]; 32 µg/mL (≈ 59.5 µM) with E. faecium ATCC19434; 1 µg/mL (≈ 1.86 µM) in [2]; 2 µg/mL (≈ 3.72 µM) with S. aureus RN4220/pMS520. Also, the MIC in the assay with P. aeruginosa PAO1 came out at 4 µg/mL (≈ 7.44 µM); with E. coli JM109/pMW218 it was 1 µg/mL (≈ 1.86 µM); in the assay on S. aureus RN4220, 2 µg/mL (≈ 3.72 µM); with S. marcescens GN6944, 4 µg/mL (≈ 7.44 µM); in the assay on P. aeruginosa PAO1/GN315 it was 4 µg/mL (≈ 7.44 µM); with S. marcescens TH-0447, 8 µg/mL (≈ 14.9 µM). Moreover, the figures for the MIC (in the assay with P. aeruginosa MSC17707; in assay [3]) were 4 µg/mL (≈ 7.44 µM) and 1 µg/mL (≈ 1.86 µM), respectively.

Take `CNC1C(O[C@H]2OC(CO)[C@@H](NCCN)[C@H](O)C2O)O[C@H]2CC(N)[C@@H](O[C@H]3CC(O)[C@H](N)CC3N)OC2C1O` (some centres unmarked) [Compound S1-b, 4″-N-(2-aminoethyl)-5-deoxyapramycin]: the MIC in the assay with P. aeruginosa MSC01035 was 4 µg/mL (≈ 7.06 µM); in the assay on S. aureus MF490, 4 µg/mL (≈ 7.06 µM); in [1], 4 µg/mL (≈ 7.06 µM); in the assay with E. faecium ATCC19434, 8 µg/mL (≈ 14.1 µM); in assay [2], 1 µg/mL (≈ 1.76 µM); in the assay with S. aureus RN4220/pMS520 it was 1 µg/mL (≈ 1.76 µM). Also, the MIC in the assay on P. aeruginosa PAO1 was 4 µg/mL (≈ 7.06 µM); in the assay on E. coli JM109/pMW218, 0.5 µg/mL (≈ 0.882 µM); in the assay with S. aureus RN4220, 2 µg/mL (≈ 3.53 µM); in the assay on S. marcescens GN6944, 4 µg/mL (≈ 7.06 µM); with P. aeruginosa PAO1/GN315 it was 4 µg/mL (≈ 7.06 µM); with S. marcescens TH-0447 it was 8 µg/mL (≈ 14.1 µM). For the same compound, the MIC in the assay on P. aeruginosa MSC17707 was determined as 4 µg/mL (≈ 7.06 µM); in assay [3] it was 1 µg/mL (≈ 1.76 µM).

As to `CNC1C(O[C@H]2OC(CO)[C@@H](NCCCN)[C@H](O)C2O)O[C@H]2CC(N)[C@@H](O[C@H]3CC(O)[C@H](N)CC3N)OC2C1O` (some centres unmarked) [Compound S1-c, 4″-N-(3-aminopropyl)-5-deoxyapramycin], the MIC in the assay on P. aeruginosa MSC01035 worked out at 8 µg/mL (≈ 13.8 µM); in the assay on S. aureus MF490 it was 4 µg/mL (≈ 6.89 µM); in assay [1] it was 8 µg/mL (≈ 13.8 µM); with E. faecium ATCC19434 it was 8 µg/mL (≈ 13.8 µM); in [2] it was 1 µg/mL (≈ 1.72 µM); with S. aureus RN4220/pMS520, 2 µg/mL (≈ 3.44 µM). Also, the MIC is 4 µg/mL (≈ 6.89 µM) in the assay on P. aeruginosa PAO1; 1 µg/mL (≈ 1.72 µM) in the assay on E. coli JM109/pMW218; 2 µg/mL (≈ 3.44 µM) in the assay on S. aureus RN4220; 8 µg/mL (≈ 13.8 µM) with S. marcescens GN6944; 4 µg/mL (≈ 6.89 µM) in the assay on P. aeruginosa PAO1/GN315; 8 µg/mL (≈ 13.8 µM) in the assay on S. marcescens TH-0447. The MIC in the assay with P. aeruginosa MSC17707 came to 8 µg/mL (≈ 13.8 µM); in assay [3], 1 µg/mL (≈ 1.72 µM).
